Assay results from US12534452B2, “N-(1H-imidazol-2-yl)benzamide compound and pharmaceutical composition comprising the same as active ingredient” (KAINOS MEDICINE, INC., priority 2019, dated 2026).

target: IRAK4 (Homo sapiens (Human), UniProt Q9NWZ3); test: In vitro IRAK4 phosphorylation activity assay; type: biochemical; settings: [γ-33P]-ATP, myelin basic protein substrate, 40 minutes at room temperature; categories
In short: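 Radiometric filter-binding assay, no compound–kinase preincubation; 8 mM MOPS pH 7.0, 0.2 mM EDTA, 10 mM Mg acetate, 0.33 mg/mL myelin basic protein substrate, [γ-33P]-ATP. Reaction 40 min at room temperature, stopped with phosphoric acid, scintillation counting; IC50 reported in categories.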

Sequence of IRAK4 (Q9NWZ3 whole entry): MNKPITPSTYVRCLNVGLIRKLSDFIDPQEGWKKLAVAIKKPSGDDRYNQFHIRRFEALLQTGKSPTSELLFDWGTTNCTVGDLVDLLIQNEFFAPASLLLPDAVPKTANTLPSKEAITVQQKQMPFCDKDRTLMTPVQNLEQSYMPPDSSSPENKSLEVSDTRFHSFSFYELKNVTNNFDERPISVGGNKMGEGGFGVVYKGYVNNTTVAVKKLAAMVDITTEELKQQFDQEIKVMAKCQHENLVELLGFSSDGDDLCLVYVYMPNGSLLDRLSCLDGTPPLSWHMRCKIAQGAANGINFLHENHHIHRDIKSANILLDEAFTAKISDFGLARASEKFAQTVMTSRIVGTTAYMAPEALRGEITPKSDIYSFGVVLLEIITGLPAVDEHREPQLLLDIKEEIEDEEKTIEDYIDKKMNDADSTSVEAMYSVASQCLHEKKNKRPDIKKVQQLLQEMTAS

Row | SMILES | IC50
1 | Cn1cc(-c2cccc(C(=O)Nc3nc(CCCC(=O)NC4CCC(O)CC4)cn3-c3ccccc3)c2)cn1 [Example 156, N-(4-(4-(((1R,4R)-4-hydroxycyclohexyl)amino)-4-oxobutyl)-1-phenyl-1H-imidazol-2-yl)-3-(1-methyl-1H-pyrazol-4-yl)benzamide] | < 50 nM
2 | O=C(CCCCCc1cn(-c2ccccc2)c(NC(=O)c2cccc(-c3ccc4scnc4c3)c2)n1)NC1CC1 [Example 290, 3-(benzo[d]thiazol-5-yl)-N-(4-(6-(cyclopropylamino)-6-oxohexyl)-1-phenyl-1H-imidazol-2-yl)benzamide] | > 100 nM
3 | O=C(Nc1nc(CCCCCC(=O)N2CCCCC2)cn1-c1ccccc1)c1cccc(-c2cn[nH]c2)c1 [Example 93, N-(4-(6-oxo-6-(piperidin-1-yl)hexyl)-1-phenyl-1H-imidazol-2-yl)-3-(1H-pyrazol-4-yl)benzamide] | < 50 nM
4 | CNC(=O)CCCc1cn(-c2ccccc2)c(NC(=O)c2cccc(-c3cn[nH]c3)c2)n1 [Example 60, N-(4-(4-(methylamino)-4-oxobutyl)-1-phenyl-1H-imidazol-2-yl)-3-(1H-pyrazol-4-yl)benzamide] | < 50 nM
5 | O=C(Nc1nc(CCCCCCN2CCSCC2)cn1-c1ccccc1)c1cccc(-c2cn[nH]c2)c1 [Example 124, N-(1-phenyl-4-(6-thiomorpholinohexyl)-1H-imidazol-2-yl)-3-(1H-pyrazol-4-yl)benzamide] | < 50 nM
6 | O=C(Nc1nc(CCCCCCN2CCCCC2)cn1-c1ccccc1)c1cccc(-c2cn[nH]c2)c1 [Example 102, N-(1-phenyl-4-(6-(piperidin-1-yl)hexyl)-1H-imidazol-2-yl)-3-(1H-pyrazol-4-yl)benzamide] | < 50 nM
7 | Cn1cc(-c2cccc(C(=O)Nc3nc(CCCCCCN4CCCC4=O)cn3-c3ccccc3)c2)cn1 [Example 225, 3-(1-methyl-1H-pyrazol-4-yl)-N-(4-(6-(2-oxopyrrolidin-1-yl)hexyl)-1-phenyl-1H-imidazol-2-yl)benzamide] | < 50 nM
8 | Cn1cc(-c2cccc(C(=O)Nc3nc(CCCCCCN4C(=O)CCC4=O)cn3-c3ccccc3)c2)cn1 [Example 226, N-(4-(6-(2,5-dioxopyrrolidin-1-yl)hexyl)-1-phenyl-1H-imidazol-2-yl)-3-(1-methyl-1H-pyrazol-4-yl)benzamide] | < 50 nM
9 | Cn1cc(-c2cccc(C(=O)Nc3nc(CCCC(=O)O)cn3-c3ccccc3)c2)cn1 [Example 140, 4-(2-(3-(1-methyl-1H-pyrazol-4-yl)benzamido)-1-phenyl-1H-imidazol-4-yl)butanoic acid] | 50 to 100 nM
10 | COC(=O)CCCc1cn(-c2ccccc2)c(NC(=O)c2cccc(-c3cn[nH]c3)c2)n1 [Example 58, methyl 4-(2-(3-(1H-pyrazol-4-yl)benzamido)-1-phenyl-1H-imidazol-4-yl)butanoate] | < 50 nM
11 | O=C(CCc1cn(-c2cccc(Br)c2)c(NC(=O)c2cccc(-c3cn[nH]c3)c2)n1)Nc1ccccc1 [Example 294, N-(1-(3-bromophenyl)-4-(3-oxo-3-(phenylamino)propyl)-1H-imidazol-2-yl)-3-(1H-pyrazol-4-yl)benzamide] | 50 to 100 nM
12 | CN1CCN(CCCNC(=O)CCCc2cn(-c3ccccc3)c(NC(=O)c3cccc(-c4cnn(C)c4)c3)n2)CC1 [Example 186, 3-(1-methyl-1H-pyrazol-4-yl)-N-(4-(4-((3-(4-methylpiperazin-1-yl)propyl)amino)-4-oxobutyl)-1-phenyl-1H-imidazol-2-yl)benzamide] | 50 to 100 nM
13 | C[C@@H]1CCC[C@H](C)N1C(=O)CCc1cn(-c2ccccc2)c(NC(=O)c2cccc(-c3cn[nH]c3)c2)n1 [Example 32, N-(4-(3-((2R,6S)-2,6-dimethylpiperidin-1-yl)-3-oxopropyl)-1-phenyl-1H-imidazol-2-yl)-3-(1H-pyrazol-4-yl)benzamide] | < 50 nM
14 | CN(C)C1CCN(C(=O)CCCc2cn(-c3ccccc3)c(NC(=O)c3cccc(-c4ccc5scnc5c4)c3)n2)CC1 [Example 282, 3-(benzo[d]thiazol-5-yl)-N-(4-(4-(4-(dimethylamino)piperidin-1-yl)-4-oxobutyl)-1-phenyl-1H-imidazol-2-yl)benzamide] | > 100 nM
